Test system: MV-4-11 cells
Assay: Gene expression microarray analysis (Affymetrix PrimeView) and GSEA
Format: cell-based, human
Set-up: RFU PODN (11730768_x_at) / Fold change /veh PODN (11730768_x_at) / RFU LINC00158 (11744669_a_at) / Fold change /veh LINC00158 (11744669_a_at) / RFU DUSP10 (11751237_a_at) / Fold change /veh DUSP10 (11751237_a_at) / RFU ID3 (11757404_x_at) / Fold change /veh ID3 (11757404_x_at) / RFU PLEKHG5 (11737974_s_at) / Fold change /veh PLEKHG5 (11737974_s_at) / RFU LRRC4B (11730491_at) / Fold change /veh LRRC4B (11730491_at) / RFU GIMAP4 (11747438_a_at) / Fold change /veh GIMAP4 (11747438_a_at) / RFU KRT8 (11758183_x_at) / Fold change /veh KRT8 (11758183_x_at) / RFU CNN1 (11734310_a_at) / Fold change /veh CNN1 (11734310_a_at) / RFU VPS37D (11726825_at) / Fold change /veh VPS37D (11726825_at) / RFU C10orf10 (11716522_x_at) / Fold change /veh C10orf10 (11716522_x_at) / RFU KIR2DL2 /// KIR2DL4 /// KIR2DL5A /// KIR2DL5B /// KIR2DS1 /// KIR2DS2 /// KIR2DS3 /// KIR2DS4 /// KIR3DL3 /// KIR3DL3 /// KIR3DS1 (11738374_at) / Fold change /veh KIR2DL2 /// KIR2DL4 /// KIR2DL5A /// KIR2DL5B /// KIR2DS1 /// KIR2DS2 /// KIR2DS3 /// KIR2DS4 /// KIR3DL3 /// KIR3DL3 /// KIR3DS1 (11738374_at) / RFU C1QL1 (11718748_at) / Fold change /veh C1QL1 (11718748_at) / RFU TMPRSS4 (11747572_a_at) / Fold change /veh TMPRSS4 (11747572_a_at) / RFU HAMP (11756126_x_at) / Fold change /veh HAMP (11756126_x_at) / RFU RNFT2 (11725882_a_at) / Fold change /veh RNFT2 (11725882_a_at) / RFU NR4A2 (11747474_a_at) / Fold change /veh NR4A2 (11747474_a_at) / RFU ABCC12 (11746883_a_at) / Fold change /veh ABCC12 (11746883_a_at) / RFU TMEM136 (11760407_x_at) / Fold change /veh TMEM136 (11760407_x_at) / RFU CLDN22 /// WWC2 (11732394_at) / Fold change /veh CLDN22 /// WWC2 (11732394_at) / RFU HLA-DPB1 (11760878_x_at) / Fold change /veh HLA-DPB1 (11760878_x_at) / RFU SPINT1 (11716480_a_at) / Fold change /veh SPINT1 (11716480_a_at) / RFU GAP43 (11754022_s_at) / Fold change /veh GAP43 (11754022_s_at) / RFU A4GNT (11735810_at) / Fold change /veh A4GNT (11735810_at) / RFU PRB3 (11715151_x_at) / Fold change /veh PRB3 (11715151_x_at) / RFU TUBB4B (11761932_at) / Fold change /veh TUBB4B (11761932_at) / RFU CAPN14 (11732068_a_at) / Fold change /veh CAPN14 (11732068_a_at) / RFU TMCC2 (11721928_a_at) / Fold change /veh TMCC2 (11721928_a_at) / RFU IRGQ (11745062_a_at) / Fold change /veh IRGQ (11745062_a_at) / RFU FAM174B (11720279_a_at) / Fold change /veh FAM174B (11720279_a_at) / RFU TMPRSS4 (11748680_a_at) / Fold change /veh TMPRSS4 (11748680_a_at) / RFU FAM212B (11763350_a_at) / Fold change /veh FAM212B (11763350_a_at) / RFU PLEKHG5 (11743358_a_at) / Fold change /veh PLEKHG5 (11743358_a_at) / RFU ZSCAN30 (11745921_a_at) / Fold change /veh ZSCAN30 (11745921_a_at) / RFU CMKLR1 (11741424_a_at) / Fold change /veh CMKLR1 (11741424_a_at) / RFU LOC101060620 /// MAPK8IP1 (11723275_at) / Fold change /veh LOC101060620 /// MAPK8IP1 (11723275_at) / RFU SPTSSB (11747773_x_at) / Fold change /veh SPTSSB (11747773_x_at) / RFU PRSS12 (11739890_at) / Fold change /veh PRSS12 (11739890_at) / RFU BIN1 (11741810_x_at) / Fold change /veh BIN1 (11741810_x_at) / RFU WNT11 (11732464_a_at) / Fold change /veh WNT11 (11732464_a_at) / RFU C10orf10 (11716521_a_at) / Fold change /veh C10orf10 (11716521_a_at) / RFU C5orf56 (11738089_at) / Fold change /veh C5orf56 (11738089_at) / RFU CYB561 (11721691_x_at) / Fold change /veh CYB561 (11721691_x_at) / RFU ANKRD19P (11752326_a_at) / Fold change /veh ANKRD19P (11752326_a_at) / RFU OR2T12 /// OR2T33 /// OR2T8 (11738714_s_at) / Fold change /veh OR2T12 /// OR2T33 /// OR2T8 (11738714_s_at) / RFU VCAN (11748164_a_at) / Fold change /veh VCAN (11748164_a_at) / RFU JSRP1 (11732532_at) / Fold change /veh JSRP1 (11732532_at) / RFU KRTAP10-11 (11738290_x_at) / Fold change /veh KRTAP10-11 (11738290_x_at) / RFU MYO3A (11730013_a_at) / Fold change /veh MYO3A (11730013_a_at) / RFU EBF3 (11725865_a_at) / Fold change /veh EBF3 (11725865_a_at) / RFU CAMK2N1 (11719241_x_at) / Fold change /veh CAMK2N1 (11719241_x_at) / RFU C5orf56 (11738088_a_at) / Fold change /veh C5orf56 (11738088_a_at) / RFU OLFML3 (11715873_a_at) / Fold change /veh OLFML3 (11715873_a_at) / RFU LOC100653217 /// NTM (11731650_a_at) / Fold change /veh LOC100653217 /// NTM (11731650_a_at) / RFU MAPK11 (11762145_a_at) / Fold change /veh MAPK11 (11762145_a_at) / RFU FIZ1 (11724087_x_at) / Fold change /veh FIZ1 (11724087_x_at) / RFU OASL (11726364_x_at) / Fold change /veh OASL (11726364_x_at) / RFU SOX15 (11748057_x_at) / Fold change /veh SOX15 (11748057_x_at) / RFU CD79A (11719716_a_at) / Fold change /veh CD79A (11719716_a_at) / RFU HIST1H1D (11736915_at) / Fold change /veh HIST1H1D (11736915_at) / RFU CASKIN2 (11723855_a_at) / Fold change /veh CASKIN2 (11723855_a_at) / RFU LOC730098 (11760151_x_at) / Fold change /veh LOC730098 (11760151_x_at) / RFU OR4N2 (11742367_at) / Fold change /veh OR4N2 (11742367_at) / RFU PRRT2 (11749266_a_at) / Fold change /veh PRRT2 (11749266_a_at) / RFU SNX32 (11753110_a_at) / Fold change /veh SNX32 (11753110_a_at) / RFU CDHR5 (11726645_a_at) / Fold change /veh CDHR5 (11726645_a_at) / RFU RCAN1 (11760418_a_at) / Fold change /veh RCAN1 (11760418_a_at) / RFU FAM167A (11723789_a_at) / Fold change /veh FAM167A (11723789_a_at) / RFU FAM26E (11764081_at) / Fold change /veh FAM26E (11764081_at) / RFU ISYNA1 (11749810_s_at) / Fold change /veh ISYNA1 (11749810_s_at) / RFU ACY1 (11761880_at) / Fold change /veh ACY1 (11761880_at) / RFU 11764098_at / Fold change /veh 11764098_at / RFU SAMD14 (11745864_x_at) / Fold change /veh SAMD14 (11745864_x_at) / RFU NPB (11741838_a_at) / Fold change /veh NPB (11741838_a_at) / RFU TMPRSS6 (11731388_a_at) / Fold change /veh TMPRSS6 (11731388_a_at) / RFU KRTAP10-2 (11738614_at) / Fold change /veh KRTAP10-2 (11738614_at) / RFU ARHGAP8 /// PRR5-ARHGAP8 (11727945_x_at) / Fold change /veh ARHGAP8 /// PRR5-ARHGAP8 (11727945_x_at) / RFU KRTAP5-7 /// NADSYN1 (11734609_at) / Fold change /veh KRTAP5-7 /// NADSYN1 (11734609_at) / RFU RASL12 (11751679_a_at) / Fold change /veh RASL12 (11751679_a_at) / RFU CDKN2B (11736163_a_at) / Fold change /veh CDKN2B (11736163_a_at) / RFU PRF1 (11729649_at) / Fold change /veh PRF1 (11729649_at) / RFU, ZNF638 /// ZNF638-IT1 / Fold change vs veh, ZNF638 /// ZNF638-IT1 / RFU, PANK3 / Fold change vs veh, PANK3 / RFU, SH3YL1 / Fold change vs veh, SH3YL1 / RFU, ZEB2 / Fold change vs veh, ZEB2 / RFU, NRIP1 / Fold change vs veh, NRIP1 / RFU, PTTG1IP / Fold change vs veh, PTTG1IP / RFU, CAPN2 / Fold change vs veh, CAPN2 / RFU, MED14 / Fold change vs veh, MED14 / RFU, SNORA58 / Fold change vs veh, SNORA58 / RFU, C1orf63 / Fold change vs veh, C1orf63 / RFU, LRRFIP1 / Fold change vs veh, LRRFIP1 / RFU, NDUFAF7 / Fold change vs veh, NDUFAF7 / RFU, SLC12A2 / Fold change vs veh, SLC12A2 / RFU, IBTK / Fold change vs veh, IBTK / RFU, ESF1 / Fold change vs veh, ESF1 / Fold change vs veh, TMEM50B / RFU, TAOK1 / Fold change vs veh, TAOK1 / RFU, ACBD3 / Fold change vs veh, ACBD3 / RFU, TMA16 / Fold change vs veh, TMA16 / RFU, RWDD3 / Fold change vs veh, RWDD3 / RFU, BCAT1 / Fold change vs veh, BCAT1 / RFU, EDEM3 / Fold change vs veh, EDEM3 / RFU, TMEM33 / Fold change vs veh, TMEM33 / RFU, WDR75 / Fold change vs veh, WDR75 / RFU, AHCTF1 / Fold change vs veh, AHCTF1 / RFU, TFRC / Fold change vs veh, TFRC / RFU, ZDHHC17 / Fold change vs veh, ZDHHC17 / RFU, NOM1 / Fold change vs veh, NOM1 / RFU, ARL8B / Fold change vs veh, ARL8B / RFU, ZBTB11 / Fold change vs veh, ZBTB11 / RFU, TAMM41 / Fold change vs veh, TAMM41 / RFU, KIAA1704 /// LOC100996395 / Fold change vs veh, KIAA1704 /// LOC100996395 / RFU, ING1 / Fold change vs veh, ING1 / RFU, TRMT61B / Fold change vs veh, TRMT61B / RFU, FUBP3 / Fold change vs veh, FUBP3 / RFU, TP53 / Fold change vs veh, TP53 / RFU, TNKS2 / Fold change vs veh, TNKS2 / RFU, ZFP14 / Fold change vs veh, ZFP14 / RFU, ACTR2 / Fold change vs veh, ACTR2 / RFU, PPP3R1 / Fold change vs veh, PPP3R1 / RFU, PIK3R1 / Fold change vs veh, PIK3R1 / RFU, HNRNPA1 / Fold change vs veh, HNRNPA1 / RFU, RNF170 / Fold change vs veh, RNF170 / RFU, ZNF28 / Fold change vs veh, ZNF28 / RFU, RNGTT / Fold change vs veh, RNGTT / RFU, OGT / Fold change vs veh, OGT / RFU, BRD1 / Fold change vs veh, BRD1 / RFU, MARS / Fold change vs veh, MARS / RFU, ZNF655 / Fold change vs veh, ZNF655 / RFU, FAHD1 / Fold change vs veh, FAHD1 / RFU, BDP1 / Fold change vs veh, BDP1 / RFU, LRRCC1 / Fold change vs veh, LRRCC1 / RFU, ARID1A / Fold change vs veh, ARID1A / RFU, ZNF146 / Fold change vs veh, ZNF146 / RFU, ZNF330 / Fold change vs veh, ZNF330 / RFU, GPN3 / Fold change vs veh, GPN3 / RFU, C9orf123 / Fold change vs veh, C9orf123 / RFU, N4BP2L2 / Fold change vs veh, N4BP2L2 / RFU, ARFIP1 / Fold change vs veh, ARFIP1 / RFU, FAM179B / Fold change vs veh, FAM179B / RFU, BCL10 / Fold change vs veh, BCL10 / RFU, UHRF1BP1L / Fold change vs veh, UHRF1BP1L / RFU, BET1 / Fold change vs veh, BET1 / RFU, CNOT2 / Fold change vs veh, CNOT2 / RFU, ZNF268 / Fold change vs veh, ZNF268 / Fold change vs veh, ZNF507 / RFU, DGCR2 / Fold change vs veh, DGCR2 / RFU, WDSUB1 / Fold change vs veh, WDSUB1 / Fold change vs veh, HSP90B1 /// MIR3652 / RFU, ADSS / Fold change vs veh, ADSS / RFU, GK / Fold change vs veh, GK / RFU, ZNF148 / Fold change vs veh, ZNF148 / RFU, TAF9 / Fold change vs veh, TAF9 / RFU, SLC1A5 / Fold change vs veh, SLC1A5 / RFU, SLMO2 / Fold change vs veh, SLMO2 / RFU, ABCC4 / Fold change vs veh, ABCC4 / RFU, LOC101060439 /// RAP1B / Fold change vs veh, LOC101060439 /// RAP1B / RFU, RFX7 / Fold change vs veh, RFX7 / RFU, GTPBP10 / Fold change vs veh, GTPBP10 / RFU, CNEP1R1 / Fold change vs veh, CNEP1R1 / RFU, BIVM-ERCC5 /// ERCC5 / Fold change vs veh, BIVM-ERCC5 /// ERCC5 / RFU, ILF3 / Fold change vs veh, ILF3 / RFU 11762660_at / Fold change /veh 11762660_at / RFU VCAN (11757783_s_at) / Fold change /veh VCAN (11757783_s_at) / RFU DDX43 (11728927_at) / Fold change /veh DDX43 (11728927_at) / RFU KRT8 (11758188_x_at) / Fold change /veh KRT8 (11758188_x_at) / RFU NKD1 (11759106_at) / Fold change /veh NKD1 (11759106_at) / RFU SRD5A1 (11742802_a_at) / Fold change /veh SRD5A1 (11742802_a_at) / RFU TPSAB1 /// TPSB2 (11721975_s_at) / Fold change /veh TPSAB1 /// TPSB2 (11721975_s_at) / RFU GSTM3 (11746129_a_at) / Fold change /veh GSTM3 (11746129_a_at) / RFU IL23R (11737362_x_at) / Fold change /veh IL23R (11737362_x_at) / RFU TMEM51 (11727254_a_at) / Fold change /veh TMEM51 (11727254_a_at) / RFU PIWIL2 (11732686_x_at) / Fold change /veh PIWIL2 (11732686_x_at) / RFU ORM1 (11744905_x_at) / Fold change /veh ORM1 (11744905_x_at) / RFU CCDC152 (11743942_at) / Fold change /veh CCDC152 (11743942_at) / RFU ECM1 (11717891_a_at) / Fold change /veh ECM1 (11717891_a_at) / RFU IL23R (11748794_a_at) / Fold change /veh IL23R (11748794_a_at) / RFU TNFAIP8L3 (11732012_x_at) / Fold change /veh TNFAIP8L3 (11732012_x_at) / RFU MBOAT4 (11741988_at) / Fold change /veh MBOAT4 (11741988_at) / RFU 11764193_at / Fold change /veh 11764193_at / RFU TMEM53 (11763286_at) / Fold change /veh TMEM53 (11763286_at) / RFU MAGEB2 (11727129_at) / Fold change /veh MAGEB2 (11727129_at) / RFU TMEM200A (11744735_a_at) / Fold change /veh TMEM200A (11744735_a_at) / RFU CCDC152 (11751479_a_at) / Fold change /veh CCDC152 (11751479_a_at) / RFU FAM211A (11726209_a_at) / Fold change /veh FAM211A (11726209_a_at) / RFU RGS16 (11746705_a_at) / Fold change /veh RGS16 (11746705_a_at) / RFU VCAN (11755009_s_at) / Fold change /veh VCAN (11755009_s_at) / RFU RHOB (11743442_s_at) / Fold change /veh RHOB (11743442_s_at) / RFU RGS16 (11720943_a_at) / Fold change /veh RGS16 (11720943_a_at) / RFU RGS16 (11720944_at) / Fold change /veh RGS16 (11720944_at) / RFU, VPS4B / Fold change vs veh, VPS4B / RFU, CREB1 / Fold change vs veh, CREB1 / RFU, DNAJC13 / Fold change vs veh, DNAJC13 / RFU, GNAQ / Fold change vs veh, GNAQ / RFU, CDK5R1 / Fold change vs veh, CDK5R1 / RFU, ZRANB3 / Fold change vs veh, ZRANB3 / RFU, CUL4A / Fold change vs veh, CUL4A / RFU, CCNY / Fold change vs veh, CCNY / RFU, UFL1 / Fold change vs veh, UFL1 / RFU, COG3 / Fold change vs veh, COG3 / RFU, DIAPH2 / Fold change vs veh, DIAPH2 / RFU, SKA2 / Fold change vs veh, SKA2 / RFU, AFF3 / Fold change vs veh, AFF3 / RFU, LMF1 / Fold change vs veh, LMF1 / RFU, IPO11 / Fold change vs veh, IPO11 / RFU, DFFB / Fold change vs veh, DFFB / RFU, FOXP1 / Fold change vs veh, FOXP1 / RFU, CARD8 / Fold change vs veh, CARD8 / RFU, STRN3 / Fold change vs veh, STRN3 / RFU, ADK / Fold change vs veh, ADK / RFU, RASSF2 / Fold change vs veh, RASSF2 / RFU, WIPF1 / Fold change vs veh, WIPF1 / RFU, LARP1B / Fold change vs veh, LARP1B / RFU, RASA1 / Fold change vs veh, RASA1 / RFU, RB1 / Fold change vs veh, RB1 / RFU, PPFIA1 / Fold change vs veh, PPFIA1 / RFU, MAT2A / Fold change vs veh, MAT2A / RFU, CCT5 / Fold change vs veh, CCT5 / RFU, WDR92 / Fold change vs veh, WDR92 / RFU, CUX1 / Fold change vs veh, CUX1 / RFU, TTC7A / Fold change vs veh, TTC7A / RFU, TMEM135 / Fold change vs veh, TMEM135 / RFU, DEPTOR / Fold change vs veh, DEPTOR / RFU, CPM / Fold change vs veh, CPM / RFU, DNAJB6 / Fold change vs veh, DNAJB6 / RFU, CACNA2D3 / Fold change vs veh, CACNA2D3 / RFU, DTX4 / Fold change vs veh, DTX4 / RFU, TFCP2 / Fold change vs veh, TFCP2 / RFU, GMCL1 /// GMCL1P1 / Fold change vs veh, GMCL1 /// GMCL1P1 / RFU, AEBP2 / Fold change vs veh, AEBP2 / RFU, SNHG1 /// SNORD22 /// SNORD25 /// SNORD26 /// SNORD27 /// SNORD28 /// SNORD29 /// SNORD31 / Fold change vs veh, SNHG1 /// SNORD22 /// SNORD25 /// SNORD26 /// SNORD27 /// SNORD28 /// SNORD29 /// SNORD31 / Fold change (Aza/veh), C12orf56 (ProbeSet 11735607_a_at) / Fold change (ACY-1035/veh), C12orf56 (ProbeSet 11735607_a_at) / Fold change (Aza/veh), FGFR1OP (ProbeSet 11751329_s_at) / Fold change (ACY-1035/veh), FGFR1OP (ProbeSet 11751329_s_at) / Fold change (Aza/veh), VPS36 (ProbeSet 11739960_a_at) / Fold change (ACY-1035/veh), VPS36 (ProbeSet 11739960_a_at) / RFU SYPL1 (11715823_x_at) / Fold change /veh SYPL1 (11715823_x_at) / RFU IGFBP7 (11715501_s_at) / Fold change /veh IGFBP7 (11715501_s_at) / RFU REEP3 (11722064_at) / Fold change /veh REEP3 (11722064_at) / RFU IGLL1 (11728026_x_at) / Fold change /veh IGLL1 (11728026_x_at): dose or concentration left out as unconfirmed
Details: ProbeSet 11727958_a_at; LIST B

With `Nc1ncn([C@@H]2O[C@H](CO)[C@@H](O)[C@H]2O)c(=O)n1` [azacitidine] the “RFU, ING1” value was 72.09 RFU.

Source: publication PMC5218480 (PLoS ONE, 2017)
